Structures can show the parent of a compound that is named as a salt.

The target in one experiment is T1, human GC-A (Homo sapiens, UniProt P16066).
T1 construct: host or cells: HEK293
T1 sequence (P16066 33-1061): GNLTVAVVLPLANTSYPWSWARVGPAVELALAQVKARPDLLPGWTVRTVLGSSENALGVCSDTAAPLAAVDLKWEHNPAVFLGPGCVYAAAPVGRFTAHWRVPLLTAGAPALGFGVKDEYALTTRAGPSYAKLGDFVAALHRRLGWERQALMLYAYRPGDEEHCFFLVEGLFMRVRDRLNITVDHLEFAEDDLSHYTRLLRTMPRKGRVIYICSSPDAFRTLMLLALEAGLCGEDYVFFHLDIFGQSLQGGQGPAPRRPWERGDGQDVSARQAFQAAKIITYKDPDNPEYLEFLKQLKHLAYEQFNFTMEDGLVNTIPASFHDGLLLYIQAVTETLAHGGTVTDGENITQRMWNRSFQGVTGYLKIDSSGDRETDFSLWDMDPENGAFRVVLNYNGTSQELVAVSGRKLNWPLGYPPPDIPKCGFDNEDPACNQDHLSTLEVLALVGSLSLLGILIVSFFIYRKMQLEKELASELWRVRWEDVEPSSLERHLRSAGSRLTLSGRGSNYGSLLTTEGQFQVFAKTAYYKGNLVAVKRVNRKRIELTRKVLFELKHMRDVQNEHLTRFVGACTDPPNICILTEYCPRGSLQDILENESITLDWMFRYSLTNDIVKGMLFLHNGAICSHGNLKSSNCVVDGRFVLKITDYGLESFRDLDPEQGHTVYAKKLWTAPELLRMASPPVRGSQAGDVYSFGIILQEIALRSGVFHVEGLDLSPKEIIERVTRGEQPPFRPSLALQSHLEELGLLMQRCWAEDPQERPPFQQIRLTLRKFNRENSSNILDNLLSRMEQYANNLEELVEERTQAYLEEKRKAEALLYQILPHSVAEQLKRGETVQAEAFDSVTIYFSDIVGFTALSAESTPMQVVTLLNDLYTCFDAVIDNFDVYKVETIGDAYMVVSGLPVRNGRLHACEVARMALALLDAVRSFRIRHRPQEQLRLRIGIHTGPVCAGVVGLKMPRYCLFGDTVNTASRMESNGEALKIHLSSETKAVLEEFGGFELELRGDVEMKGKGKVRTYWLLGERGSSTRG
T1 sequence (P01160 124-151 partner limits assumed): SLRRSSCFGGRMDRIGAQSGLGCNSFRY
The experiment can be described thus: EC50 and Emax cGMP determination, HTRF, human GC-A overexpressing HEK293 cells. Format: cell-based. Particulars: for Emax: HEK293, HEK293 GC-A cells, read-out: EMax cGMP activities; for Emax / EMax cGMP activities: 100% = saturating ANP (10 nM), 0% = EC20 ANP; for EC50: EC20 ANP, read-out: EC50 cGMP activities. On the procedure: Test compounds were evaluated for potentiation of cGMP in human GC-A overexpressing HEK293 cells (Cardiorenal Research Laboratory, Mayo Clinic). Test compounds at 10 mM DMSO stock concentration were dispensed into 384 well small volume white plates using Tecan D300e digital dispenser starting at 5 μM or 40 μM concentration and diluted 2-fold for 10-point concentration response. Wells were backfilled with DMSO such that the final concentration of DMSO in all wells was maintained at 0.3% DMSO. Atrial natriuretic peptide (ANP, Phoenix Pharmaceuticals) ANP was prepared as working stock aliquots at 5 μM in phosphate-buffered solution (PBS) with 0.1% bovine serum albumin (BSA) and diluted to […] in buffer plus Tween20 at 0.3% and added to plates to a final concentration equivalent to EC20 ANP in the cGMP assay. GC-A cells in suspension ([…]) in OptiMem media (ThermoFisher 11058-021) supplemented with 2% fetal bovine serum were plated at 1×10^6 cells/mL and assay plates were spun at 1000 rpm for 30 sec and incubated at room temperature for 30 min. GC-A-mediated activation of cGMP production was measured using cGMP CisBio detection homogenous time-resolved florescence (HTRF) competition assay using labeled-cGMP in human GC-A-overexpressing HEK293 cells. 5 μL of d-2 acceptor was dispensed into each well followed by addition of 5 μL of Anti-cGMP Eu-Cryptate antibody donor and plates were spun at 1000 rpm for 30 sec and incubated in the dark at room temperature for 1 hr. HTRF florescence was read on the ClarioStar microplate reader (BMG). A 100% response was determined from wells in the absence of compound and presence of saturating concentration of ANP (10 nM), and 0) % response was determined from wells containing an EC20 concentration of ANP determined for each new lot of ANP. Concentration-response curves for test compounds were analyzed by […] analysis using GraphPad software to determine EC50 and Emax values.
In general terms: Time-resolved FRET reads energy transfer from a long-lived donor to a nearby acceptor.

The subject of experiment [1] is Primary Human cardiomyocytes. Nature of the experiment: cGMP levels (ELISA) in human cardiomyocytes. Format: cell-based. Particulars: acetate salt, 1 or 10 μM, ANP (10^-10 M), vs vehicle. As to the method: Primary Human cardiomyocytes (HCMs: Catalog No. 6200, Lot No. 6288, PromoCell) were maintained and subcultured according to the manufacturer's protocols. Passage 5 was used in the study. Treatment buffer, Compound 3, Compound 1 and Compound 2 acetate salt, ANP, and vehicle were prepared as described above. Briefly, 5×10^5 of cells/well were grown in 6-well plates until 80 to 90% confluency and were then pretreated with vehicle or Compound 3, Compound 1 or Compound 2 at doses of 1 or 10 μM for 5 min at 37° C., then cells were treated with ANP (10^-10 M) for an additional 10 min at 37° C. Afterward, all cells were washed with PBS once and lysed with 0.1 M HCl at room temperature, and intracellular cGMP levels were measured in the lysate using a commercial cGMP ELISA kit (Enzo Life Sciences) with the acetylation method as instructed by the manufacturer.
In general terms: An ELISA detects its analyte on a solid surface through an enzyme-linked reagent.

For experiment [2], the target named is T2, extracellular domain human GC-A recombinant protein (Homo sapiens, UniProt P16066).
T2 construct: extracellular domain human GC-A recombinant protein; purchased My BioSource, Inc. San Diego, CA
T2 sequence (P16066 33-473 limits assumed): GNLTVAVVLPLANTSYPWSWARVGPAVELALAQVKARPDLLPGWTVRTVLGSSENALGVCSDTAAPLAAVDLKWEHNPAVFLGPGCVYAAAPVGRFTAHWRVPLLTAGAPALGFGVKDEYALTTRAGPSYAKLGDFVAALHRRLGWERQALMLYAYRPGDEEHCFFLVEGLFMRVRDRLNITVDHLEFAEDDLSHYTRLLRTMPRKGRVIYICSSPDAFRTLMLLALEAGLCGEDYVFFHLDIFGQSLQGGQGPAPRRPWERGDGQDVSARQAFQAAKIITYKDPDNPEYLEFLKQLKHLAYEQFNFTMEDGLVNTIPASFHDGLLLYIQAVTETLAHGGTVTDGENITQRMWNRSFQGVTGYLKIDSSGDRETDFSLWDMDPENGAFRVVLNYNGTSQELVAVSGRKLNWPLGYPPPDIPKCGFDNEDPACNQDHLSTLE
Nature of the experiment: Surface plasmon resonance binding to GC-A receptor. Particulars: acetate salt; for Kd: SPR 25° C., 1:1 Langmuir model. On the procedure: Surface plasmon resonance (SPR) measurements were performed at 25° C. on a BI-4500 SPR instrument (Biosensing Instrument Inc. Tempe AZ). As per the instructions by the Biosensing instrument manual, 400 mM nickel sulfate in deionized water was linked to the Ni-NTA sensor chip (Biosensing Instrument Inc. Tempe AZ. Then 30 μg/ml of extracellular domain human GC-A recombinant protein (My BioSource, Inc. San Diego, CA), containing 12 histidine residues on the C-terminus, was then immobilized to the nickel sulfate on the Ni-NTA sensor chip. After, the chip was washed with buffer (150 mM NaCl, 50 μM EDTA pH 7.4, 0).1% DMSO), then 100 μL of sequentially diluted Compound 3 acetate salt (0.125, 0.25, 0.5, 1, 2 μM), Compound 1 acetate salt (6.25, 12.5, 25, 50, 100 nM) or Compound 2 acetate salt (0.125, 0.25, 0.5, 1, 2 μM) was injected at the rate of 60 ul/min and allowed to dissociate for 60 seconds. Data was collected as sensorgrams. Binding kinetics were derived from sensorgrams using BI-Data Analysis Program (Biosensing Instrument, Tempe AZ). Affinity analysis of GC-A with Compound 3, Compound 2 and/or Compound 1 interactions were performed using a 1:1 Langmuir binding model. Two series were performed for all studies.
Background: SPR reads the build-up and loss of mass on a sensor chip optically.

Turning to `CN(C)CCN1CCCC(C(=O)Nc2nc3c(F)cc(F)cc3s2)C1` (racemic) [Compound 3 TFA salt, N-(4,6-difluorobenzo[d]thiazol-2-yl)-1-(2-(dimethylamino)ethyl) piperidine-3-carboxamide], at human GC-A, the Emax (commonly the greatest response seen or fitted, relative to the assay's reference) was 95.8%. Moreover, the 50% effective concentration (EC50) – broadly, the concentration giving half of the maximal effect – at human GC-A (HEK293 GC-A cells) was found to be 570 nM.
Regarding `CN(C)CCN1CCCC(C(=O)Nc2nc3c(F)cc(F)cc3s2)C1` (racemic) [Compound 3 acetate salt, N-(4,6-difluoro-1,3-benzothiazol-2-yl)-1-[2-(dimethylamino)ethyl]piperidine-3-carboxamide], at human GC-A (HEK293 GC-A cells), the “potency in potentiating ANP-mediated cGMP generation (comparison between forms/enantiomers)” value is listed as “more potent”, the half-maximal effective concentration (EC50) came out at 320 nM and the “EMax cGMP activities” value was determined as 84.0%. Further, in experiment [1], the “cGMP generation in HCMs in the presence of ANP” value is reported as “dose dependent increase”. For the same compound, the equilibrium dissociation constant (Kd) (usually the free concentration of one partner at which half of the binding sites on the other are occupied at equilibrium, for simple one-to-one binding) in experiment [2] is 176 nM.
Consider `CN(C)CCN1CCC[C@H](C(=O)Nc2nc3c(F)cc(F)cc3s2)C1` [Compound 1 TFA salt, (S)-N-(4,6-difluorobenzo[d]thiazol-2-yl)-1-(2-(dimethylamino)ethyl) piperidine-3-carboxamide], for which, on human GC-A (HEK293 GC-A cells), the EC50 is 160 nM and the “EMax cGMP activities” value was 75.3%.
Take `CN(C)CCN1CCC[C@H](C(=O)Nc2nc3c(F)cc(F)cc3s2)C1` [Compound 1 acetate salt, (S)-N-(4,6-difluoro-1,3-benzothiazol-2-yl)-1-[2-(dimethylamino)ethyl]piperidine-3-carboxamide]: the maximum response (Emax) at human GC-A came out at 81.5%. For the same compound, on human GC-A (HEK293 GC-A cells), the concentration giving a half-maximal response (EC50) is 150 nM. In addition, the “binding for the GC-A receptor compared with Compound 3 and Compound 2 acetate salts” value in experiment [2] (SPR) is “greater binding”. Besides, the dissociation constant (Kd) in experiment [2] is 12 nM.
Take `CN(C)CCN1CCC[C@@H](C(=O)Nc2nc3c(F)cc(F)cc3s2)C1` [Compound 2 TFA salt, (R)-N-(4,6-difluorobenzo[d]thiazol-2-yl)-1-(2-(dimethylamino)ethyl) piperidine-3-carboxamide]: at human GC-A, the maximal effect (Emax) stood at 82.7%. In addition, the concentration for a half-maximal effect (EC50) at human GC-A (HEK293 GC-A cells) is 730 nM.
In the case of `CN(C)CCN1CCC[C@@H](C(=O)Nc2nc3c(F)cc(F)cc3s2)C1` [Compound 2 acetate salt, (R)-N-(4,6-difluoro-1,3-benzothiazol-2-yl)-1-[2-(dimethylamino)ethyl]piperidine-3-carboxamide], on human GC-A (HEK293 GC-A cells), the 50% effective concentration (EC50) came out at 1320 nM and the “EMax cGMP activities” value worked out at 73.1%. Further, the Kd in experiment [2] was 120 nM.
